Paper PMC10046369, “Low-Affinity/High-Selectivity Dopamine Transport Inhibition Sufficient to Rescue Cognitive Functions in the Aging Rat” (Biomolecules, 2023)

Columns and labels:
Assay in all cases: biochemical
Design in all cases: KINOMEscan competition binding panel, per cent of control
Conditions in all cases: read-out: %Ctrl @ 2800nM
[1] = target: T1, ABL1(T315I)-nonphosphorylated (Homo sapiens, UniProt P00519, T315I)
T1 construct: nonphosphorylated
Method in brief: (§1)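 Competition binding panel (KINOMEscan) across 450 human kinases and disease-relevant mutants, run to the contractor's standard protocol. Values are % control: (test signal − positive control signal)/(negative control signal − positive control signal) × 100, with lower values indicating stronger binding.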

ADCK3 = target: T2, ADCK3 (Homo sapiens, UniProt Q8NI60)
T2 construct: gene COQ8A
T2 sequence (Q8NI60 whole entry): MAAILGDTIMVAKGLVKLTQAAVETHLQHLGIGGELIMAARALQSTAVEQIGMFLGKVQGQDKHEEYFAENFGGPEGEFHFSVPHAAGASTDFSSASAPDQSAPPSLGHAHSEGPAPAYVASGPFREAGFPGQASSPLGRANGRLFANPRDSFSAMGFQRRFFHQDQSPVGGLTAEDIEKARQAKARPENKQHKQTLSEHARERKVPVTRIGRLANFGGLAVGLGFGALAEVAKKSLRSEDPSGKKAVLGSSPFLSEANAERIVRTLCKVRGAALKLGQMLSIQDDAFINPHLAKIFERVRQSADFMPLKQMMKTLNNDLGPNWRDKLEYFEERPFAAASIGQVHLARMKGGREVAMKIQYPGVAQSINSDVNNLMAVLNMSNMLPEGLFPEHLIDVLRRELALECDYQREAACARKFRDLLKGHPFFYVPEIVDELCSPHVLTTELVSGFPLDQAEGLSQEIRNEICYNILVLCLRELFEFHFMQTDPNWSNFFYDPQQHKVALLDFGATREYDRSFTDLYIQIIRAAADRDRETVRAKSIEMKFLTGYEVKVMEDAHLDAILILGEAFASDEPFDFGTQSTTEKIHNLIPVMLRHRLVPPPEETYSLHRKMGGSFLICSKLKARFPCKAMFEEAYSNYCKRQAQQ
Method in brief: as §1

ANKK1 = ANKK1 (Homo sapiens, UniProt Q8NFD2)
Method in brief: as §1

DMPK = DMPK (Homo sapiens, UniProt Q09013)
Sequence of DMPK (Q09013 whole entry): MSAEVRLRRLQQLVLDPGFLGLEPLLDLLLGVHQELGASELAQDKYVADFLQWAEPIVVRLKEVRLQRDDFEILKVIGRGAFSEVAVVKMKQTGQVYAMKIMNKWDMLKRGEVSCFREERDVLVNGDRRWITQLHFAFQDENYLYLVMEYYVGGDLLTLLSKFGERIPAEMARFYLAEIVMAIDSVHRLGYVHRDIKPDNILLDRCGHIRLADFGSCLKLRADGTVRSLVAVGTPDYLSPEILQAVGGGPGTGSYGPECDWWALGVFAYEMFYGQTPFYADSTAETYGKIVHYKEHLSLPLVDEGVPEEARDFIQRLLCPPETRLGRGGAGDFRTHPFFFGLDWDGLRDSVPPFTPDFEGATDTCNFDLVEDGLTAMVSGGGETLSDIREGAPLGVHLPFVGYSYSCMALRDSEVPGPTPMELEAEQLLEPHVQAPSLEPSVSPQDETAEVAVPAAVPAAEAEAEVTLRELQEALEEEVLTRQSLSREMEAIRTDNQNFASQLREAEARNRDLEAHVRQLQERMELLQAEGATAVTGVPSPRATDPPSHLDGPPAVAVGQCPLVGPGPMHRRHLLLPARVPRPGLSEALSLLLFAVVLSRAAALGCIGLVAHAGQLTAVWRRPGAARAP
Method in brief: as §1

FLT3(ITD,D835V) = FLT3(ITD,D835V) (Homo sapiens, UniProt P36888, D835V/ITD)
Method in brief: as §1

GRK7 = GRK7 (Homo sapiens, UniProt Q8WTQ7)
Method in brief: as §1

HIPK3 = HIPK3 (Homo sapiens, UniProt Q9H422)
Sequence of HIPK3 (Q9H422 whole entry): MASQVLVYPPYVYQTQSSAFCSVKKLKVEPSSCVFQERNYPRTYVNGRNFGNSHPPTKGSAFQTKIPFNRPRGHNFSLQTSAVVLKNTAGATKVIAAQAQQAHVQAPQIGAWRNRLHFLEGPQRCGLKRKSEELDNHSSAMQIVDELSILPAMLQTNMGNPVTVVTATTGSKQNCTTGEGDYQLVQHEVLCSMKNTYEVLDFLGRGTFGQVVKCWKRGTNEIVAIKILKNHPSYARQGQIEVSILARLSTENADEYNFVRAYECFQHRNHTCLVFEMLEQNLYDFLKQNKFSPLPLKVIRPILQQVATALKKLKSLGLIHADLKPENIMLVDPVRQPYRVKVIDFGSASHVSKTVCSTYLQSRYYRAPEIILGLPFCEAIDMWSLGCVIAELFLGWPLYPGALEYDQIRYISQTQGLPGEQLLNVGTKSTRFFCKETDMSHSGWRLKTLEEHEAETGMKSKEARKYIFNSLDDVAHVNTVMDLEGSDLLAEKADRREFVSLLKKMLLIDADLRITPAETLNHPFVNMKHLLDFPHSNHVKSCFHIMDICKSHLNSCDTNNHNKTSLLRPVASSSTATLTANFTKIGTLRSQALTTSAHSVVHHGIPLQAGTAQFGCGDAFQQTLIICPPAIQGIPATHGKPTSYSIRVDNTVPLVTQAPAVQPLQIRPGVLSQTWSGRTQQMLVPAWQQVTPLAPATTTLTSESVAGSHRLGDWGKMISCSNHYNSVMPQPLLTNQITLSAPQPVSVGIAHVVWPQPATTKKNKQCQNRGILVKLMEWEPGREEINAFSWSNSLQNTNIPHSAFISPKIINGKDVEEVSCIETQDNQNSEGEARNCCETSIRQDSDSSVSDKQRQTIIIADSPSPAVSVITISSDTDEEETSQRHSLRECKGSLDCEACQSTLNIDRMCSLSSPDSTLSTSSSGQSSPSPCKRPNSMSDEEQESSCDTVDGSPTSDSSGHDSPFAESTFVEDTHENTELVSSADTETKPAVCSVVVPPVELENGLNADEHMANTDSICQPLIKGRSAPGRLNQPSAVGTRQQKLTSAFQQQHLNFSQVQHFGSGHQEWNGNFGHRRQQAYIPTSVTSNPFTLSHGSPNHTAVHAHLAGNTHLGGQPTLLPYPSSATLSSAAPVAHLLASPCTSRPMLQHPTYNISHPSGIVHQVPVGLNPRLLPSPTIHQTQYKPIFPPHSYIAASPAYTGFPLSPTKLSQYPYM
Method in brief: as §1

IRAK1 = IRAK1 (Homo sapiens, UniProt P51617)
Method in brief: as §1

KIT(A829P) = KIT(A829P) (Homo sapiens, UniProt P10721, A829P)
Sequence of KIT(A829P) (P10721 whole entry A829P): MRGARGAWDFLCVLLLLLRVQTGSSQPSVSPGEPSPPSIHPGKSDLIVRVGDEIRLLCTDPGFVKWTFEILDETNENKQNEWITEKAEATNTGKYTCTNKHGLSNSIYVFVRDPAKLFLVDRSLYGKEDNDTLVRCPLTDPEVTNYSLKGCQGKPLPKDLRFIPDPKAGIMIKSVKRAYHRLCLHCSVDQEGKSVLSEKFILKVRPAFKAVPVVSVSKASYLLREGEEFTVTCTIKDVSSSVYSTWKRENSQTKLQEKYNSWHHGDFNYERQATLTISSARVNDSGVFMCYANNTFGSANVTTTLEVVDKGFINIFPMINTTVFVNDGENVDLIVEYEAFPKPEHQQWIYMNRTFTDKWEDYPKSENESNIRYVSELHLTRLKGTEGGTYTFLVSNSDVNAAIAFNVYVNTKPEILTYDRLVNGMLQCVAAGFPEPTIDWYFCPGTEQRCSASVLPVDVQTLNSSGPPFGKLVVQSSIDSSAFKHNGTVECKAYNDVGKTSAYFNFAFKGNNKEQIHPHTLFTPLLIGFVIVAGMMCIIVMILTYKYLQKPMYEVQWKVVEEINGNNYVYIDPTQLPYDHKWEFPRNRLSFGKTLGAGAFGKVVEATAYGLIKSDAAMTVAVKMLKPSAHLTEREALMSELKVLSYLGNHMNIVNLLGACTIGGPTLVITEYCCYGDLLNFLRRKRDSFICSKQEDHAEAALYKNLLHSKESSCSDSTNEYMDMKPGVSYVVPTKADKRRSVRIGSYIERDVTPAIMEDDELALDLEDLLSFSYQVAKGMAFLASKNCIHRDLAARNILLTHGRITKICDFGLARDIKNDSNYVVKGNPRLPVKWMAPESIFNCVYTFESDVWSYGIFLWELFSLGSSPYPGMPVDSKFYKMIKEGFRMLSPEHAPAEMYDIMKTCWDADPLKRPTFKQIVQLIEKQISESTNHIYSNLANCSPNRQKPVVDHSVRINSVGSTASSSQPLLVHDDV
Method in brief: as §1

KIT(D816H) = KIT(D816H) (Homo sapiens, UniProt P10721, D816H)
Sequence of KIT(D816H) (P10721 whole entry D816H): as the sequence (P10721 whole entry A829P) above, with D816H, P829A counted along it
Method in brief: as §1

LOK = target: T3, LOK (Homo sapiens, UniProt O94804)
T3 construct: gene STK10
Method in brief: as §1

MAP3K3 = MAP3K3 (Homo sapiens, UniProt Q99759)
Method in brief: as §1

NEK11 = NEK11 (Homo sapiens, UniProt Q8NG66)
Method in brief: as §1

NEK5 = NEK5 (Homo sapiens, UniProt Q6P3R8)
Method in brief: as §1

PIK3CA(C420R) = PIK3CA(C420R) (Homo sapiens, UniProt P42336, C420R)
Method in brief: as §1

PIK3CB = PIK3CB (Homo sapiens, UniProt P42338)
Method in brief: as §1

PKN2 = PKN2 (Homo sapiens, UniProt Q16513)
Sequence of PKN2 (Q16513 whole entry): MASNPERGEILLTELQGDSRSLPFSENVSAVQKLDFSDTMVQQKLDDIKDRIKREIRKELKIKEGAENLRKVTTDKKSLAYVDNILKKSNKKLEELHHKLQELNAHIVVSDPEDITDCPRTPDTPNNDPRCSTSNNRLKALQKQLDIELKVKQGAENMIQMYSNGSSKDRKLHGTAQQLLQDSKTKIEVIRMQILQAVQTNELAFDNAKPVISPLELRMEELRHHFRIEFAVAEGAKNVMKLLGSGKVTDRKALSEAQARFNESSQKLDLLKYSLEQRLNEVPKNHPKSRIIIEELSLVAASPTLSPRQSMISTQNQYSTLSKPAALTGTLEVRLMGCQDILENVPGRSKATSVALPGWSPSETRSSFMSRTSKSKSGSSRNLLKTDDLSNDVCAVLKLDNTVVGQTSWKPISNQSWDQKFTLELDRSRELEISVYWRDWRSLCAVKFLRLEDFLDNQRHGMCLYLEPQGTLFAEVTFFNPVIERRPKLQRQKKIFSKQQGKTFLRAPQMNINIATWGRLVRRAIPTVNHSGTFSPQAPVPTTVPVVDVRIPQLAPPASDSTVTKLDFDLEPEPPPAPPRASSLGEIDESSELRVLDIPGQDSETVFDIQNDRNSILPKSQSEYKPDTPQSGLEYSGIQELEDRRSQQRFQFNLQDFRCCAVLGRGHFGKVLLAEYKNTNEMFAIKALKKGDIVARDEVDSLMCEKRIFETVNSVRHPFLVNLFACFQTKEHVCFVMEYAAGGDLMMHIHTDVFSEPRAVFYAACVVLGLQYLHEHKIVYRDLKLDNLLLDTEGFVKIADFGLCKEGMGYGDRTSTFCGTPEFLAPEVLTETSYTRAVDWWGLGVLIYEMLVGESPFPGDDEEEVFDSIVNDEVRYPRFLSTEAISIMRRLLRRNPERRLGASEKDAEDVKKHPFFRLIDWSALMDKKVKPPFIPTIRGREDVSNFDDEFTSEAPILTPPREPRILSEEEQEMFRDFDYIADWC
Method in brief: as §1

PRKD2 = PRKD2 (Homo sapiens, UniProt Q9BZL6)
Method in brief: as §1

RET(V804L) = RET(V804L) (Homo sapiens, UniProt P07949, V804L)
Method in brief: as §1

[2] = target: T4, RSK1(Kin.Dom.2-C-terminal) (Homo sapiens, UniProt Q15418)
T4 construct: gene RPS6KA1; Kin.Dom.2-C-terminal
Method in brief: as §1

[3] = target: T5, RSK3(Kin.Dom.2-C-terminal) (Homo sapiens, UniProt Q15349)
T5 construct: gene RPS6KA2; Kin.Dom.2-C-terminal
Method in brief: as §1

STK16 = STK16 (Homo sapiens, UniProt O75716)
Sequence of STK16 (O75716 whole entry): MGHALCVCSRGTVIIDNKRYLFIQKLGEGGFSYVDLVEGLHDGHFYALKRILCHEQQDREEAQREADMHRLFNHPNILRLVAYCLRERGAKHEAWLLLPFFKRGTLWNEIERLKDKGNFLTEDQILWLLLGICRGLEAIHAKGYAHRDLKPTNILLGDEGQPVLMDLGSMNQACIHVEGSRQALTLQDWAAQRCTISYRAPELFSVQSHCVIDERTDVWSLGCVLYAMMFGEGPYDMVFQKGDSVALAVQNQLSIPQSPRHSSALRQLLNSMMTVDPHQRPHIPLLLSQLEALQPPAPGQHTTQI
Method in brief: as §1

TNNI3K = TNNI3K (Homo sapiens, UniProt Q59H18)
Method in brief: as §1

p38-alpha = target: T6, p38-alpha (Homo sapiens, UniProt Q16539)
T6 construct: gene MAPK14
Method in brief: as §1

p38-beta = target: T7, p38-beta (Homo sapiens, UniProt Q15759)
T7 construct: gene MAPK11
Method in brief: as §1

[O-][S@@+](Cc1cncs1)C(c1ccccc1)c1ccccc1 [S-CE-123, (S)-5-((Benzhydrylsulfinyl)Methyl)Thiazole]
remaining binding at 2.8 µM [1]: 100%
remaining binding at 2.8 µM (ADCK3): 87%
remaining binding at 2.8 µM (ANKK1): 100%
remaining binding at 2.8 µM (DMPK): 96%
remaining binding at 2.8 µM (FLT3(ITD,D835V)): 100%
remaining binding at 2.8 µM (GRK7): 90%
remaining binding at 2.8 µM (HIPK3): 91%
remaining binding at 2.8 µM (IRAK1): 91%
remaining binding at 2.8 µM (KIT(A829P)): 98%
remaining binding at 2.8 µM (KIT(D816H)): 100%
remaining binding at 2.8 µM (LOK): 95%
remaining binding at 2.8 µM (MAP3K3): 86%
remaining binding at 2.8 µM (NEK11): 100%
remaining binding at 2.8 µM (NEK5): 90%
remaining binding at 2.8 µM (PIK3CA(C420R)): 92%
remaining binding at 2.8 µM (PIK3CB): 93%
remaining binding at 2.8 µM (PKN2): 86%
remaining binding at 2.8 µM (PRKD2): 98%
remaining binding at 2.8 µM (RET(V804L)): 91%
remaining binding at 2.8 µM [2]: 92%
remaining binding at 2.8 µM [3]: 87%
remaining binding at 2.8 µM (STK16): 97%
remaining binding at 2.8 µM (TNNI3K): 100%
remaining binding at 2.8 µM (p38-alpha): 100%
remaining binding at 2.8 µM (p38-beta): 94%
